From PubChem BioAssay (NCI)
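The concentration for 50% growth inhibition is given as GI50. Definition used: TGI = concentration required for complete inhibition of growth.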

What was measured:
Test in all cases: NCI-60 cell line screen, 384-well format
786-0 renal = system: 786-0 renal
A498 renal = system: A498 renal
A549 NSCLC = system: A549 NSCLC
ACHN renal = system: ACHN renal
BT-549 breast = system: BT-549 breast
CAKI-1 renal = system: CAKI-1 renal
DU-145 prostate = system: DU-145 prostate
EKVX NSCLC = system: EKVX NSCLC
HCC-2998 colon = system: HCC-2998 colon
HCT-116 colon = system: HCT-116 colon
HCT-15 colon = system: HCT-15 colon
HL-60(TB) leukemia = system: HL-60(TB) leukemia
HOP-62 NSCLC = system: HOP-62 NSCLC
HOP-92 NSCLC = system: HOP-92 NSCLC
HS 578T breast = system: HS 578T breast
HT29 colon = system: HT29 colon
IGROV1 ovarian = system: IGROV1 ovarian
K-562 leukemia = system: K-562 leukemia
KM12 colon = system: KM12 colon
LOX IMVI melanoma = system: LOX IMVI melanoma
M14 melanoma = system: M14 melanoma
MALME-3M melanoma = system: MALME-3M melanoma
MCF7 breast = system: MCF7 breast
MDA-MB-231 breast = system: MDA-MB-231 breast
MDA-MB-435 melanoma = system: MDA-MB-435 melanoma
MDA-MB-468 breast = system: MDA-MB-468 breast
MOLT-4 leukemia = system: MOLT-4 leukemia
NCI-H226 lung = system: NCI-H226 lung
NCI-H23 lung = system: NCI-H23 lung
NCI-H322M lung = system: NCI-H322M lung
NCI-H460 NSCLC = system: NCI-H460 NSCLC
NCI-H522 lung = system: NCI-H522 lung
NCI/ADR-RES ovarian = system: NCI/ADR-RES ovarian
OVCAR-4 ovarian = system: OVCAR-4 ovarian
OVCAR-5 ovarian = system: OVCAR-5 ovarian
OVCAR-8 ovarian = system: OVCAR-8 ovarian
PC-3 prostate = system: PC-3 prostate
RPMI-8226 leukemia = system: RPMI-8226 leukemia
SF-268 CNS = system: SF-268 CNS
SF-295 CNS = system: SF-295 CNS
SF-539 CNS = system: SF-539 CNS
SK-MEL-2 melanoma = system: SK-MEL-2 melanoma
SK-MEL-28 melanoma = system: SK-MEL-28 melanoma
SK-MEL-5 melanoma = system: SK-MEL-5 melanoma
SK-OV-3 ovarian = system: SK-OV-3 ovarian
SN12C renal = system: SN12C renal
SNB-19 CNS = system: SNB-19 CNS
SNB-75 CNS = system: SNB-75 CNS
SR leukemia = system: SR leukemia
SW-620 colon = system: SW-620 colon
T-47D breast = system: T-47D breast
TK-10 renal = system: TK-10 renal
U251 glioblastoma = system: U251 glioblastoma
UACC-257 melanoma = system: UACC-257 melanoma
UACC-62 melanoma = system: UACC-62 melanoma
UO-31 renal = system: UO-31 renal

## Cc1cnc(-c2ccc(-c3ccc(NC(=O)Nc4c(F)cc(F)cc4F)cc3F)c3c2C(=O)NC3)[nH]1
786-0 renal
  GI50: 575 nM
  TGI: 1890 nM
A498 renal
  GI50: 165 nM
  TGI: 1160 nM
A549 NSCLC
  GI50: 616 nM
  TGI: 2150 nM
ACHN renal
  GI50: 957 nM
  TGI: 4520 nM
BT-549 breast
  GI50: 214 nM
  TGI: 981 nM
CAKI-1 renal
  GI50: 1080 nM
  TGI: 2320 nM
DU-145 prostate
  GI50: 463 nM
  TGI: 1880 nM
EKVX NSCLC
  GI50: 816 nM
  TGI: 3570 nM
HCC-2998 colon
  GI50: 1270 nM
  TGI: 2690 nM
HCT-116 colon
  GI50: 153 nM
  TGI: 1680 nM
HCT-15 colon
  GI50: 748 nM
  TGI: 13100 nM
HL-60(TB) leukemia
  GI50: < 10 nM
  TGI: 121 nM
HOP-62 NSCLC
  GI50: 227 nM
  TGI: 1270 nM
HOP-92 NSCLC
  GI50: 1460 nM
  TGI: 2790 nM
HS 578T breast
  GI50: 232 nM
  TGI: 653 nM
HT29 colon
  GI50: 1060 nM
  TGI: 2270 nM
IGROV1 ovarian
  GI50: 1300 nM
  TGI: 6510 nM
K-562 leukemia
  GI50: 227 nM
  TGI: 1350 nM
KM12 colon
  GI50: < 10 nM
  TGI: 1140 nM
LOX IMVI melanoma
  GI50: 345 nM
  TGI: 1690 nM
M14 melanoma
  GI50: 157 nM
  TGI: 1230 nM
MALME-3M melanoma
  GI50: 52.2 nM
  TGI: 727 nM
MCF7 breast
  GI50: 324 nM
  TGI: 1490 nM
MDA-MB-231 breast
  GI50: 1030 nM
  TGI: 2350 nM
MDA-MB-435 melanoma
  GI50: 397 nM
  TGI: 1760 nM
MDA-MB-468 breast
  GI50: < 10 nM
  TGI: 434 nM
MOLT-4 leukemia
  GI50: < 10 nM
NCI-H226 lung
  GI50: 1360 nM
  TGI: 2740 nM
NCI-H23 lung
  GI50: 450 nM
  TGI: 1700 nM
NCI-H322M lung
  GI50: 1300 nM
  TGI: 3110 nM
NCI-H460 NSCLC
  GI50: < 10 nM
  TGI: 201 nM
NCI-H522 lung
  GI50: 1140 nM
  TGI: 2400 nM
NCI/ADR-RES ovarian
  GI50: > 100000 nM
  TGI: > 100000 nM
OVCAR-4 ovarian
  GI50: 196 nM
  TGI: 452 nM
OVCAR-5 ovarian
  GI50: 1240 nM
  TGI: 2870 nM
OVCAR-8 ovarian
  GI50: 1090 nM
  TGI: 2340 nM
PC-3 prostate
  GI50: 1190 nM
  TGI: 2440 nM
RPMI-8226 leukemia
  GI50: 19.1 nM
  TGI: 386 nM
SF-268 CNS
  GI50: 277 nM
  TGI: 1500 nM
SF-295 CNS
  GI50: 1120 nM
  TGI: 2420 nM
SF-539 CNS
  GI50: 305 nM
  TGI: 1870 nM
SK-MEL-2 melanoma
  GI50: 395 nM
  TGI: 1470 nM
SK-MEL-28 melanoma
  GI50: 633 nM
  TGI: 2090 nM
SK-MEL-5 melanoma
  GI50: 367 nM
  TGI: 1520 nM
SK-OV-3 ovarian
  GI50: 341 nM
  TGI: 1530 nM
SN12C renal
  GI50: 462 nM
  TGI: 2000 nM
SNB-19 CNS
  GI50: 1250 nM
  TGI: 2620 nM
SNB-75 CNS
  GI50: 340 nM
  TGI: 897 nM
SR leukemia
  GI50: < 10 nM
SW-620 colon
  GI50: 234 nM
  TGI: 1310 nM
T-47D breast
  GI50: 1600 nM
  TGI: 3000 nM
TK-10 renal
  GI50: 1130 nM
  TGI: 2420 nM
U251 glioblastoma
  GI50: 623 nM
  TGI: 1960 nM
UACC-257 melanoma
  GI50: 856 nM
  TGI: 2140 nM
UACC-62 melanoma
  GI50: 219 nM
  TGI: 1340 nM
UO-31 renal
  GI50: 161 nM
  TGI: 7350 nM
